The structures appear in SMILES notation.

In this experiment the target is T1, Menin (Homo sapiens, UniProt O00255).
T1 sequence (O00255 whole entry): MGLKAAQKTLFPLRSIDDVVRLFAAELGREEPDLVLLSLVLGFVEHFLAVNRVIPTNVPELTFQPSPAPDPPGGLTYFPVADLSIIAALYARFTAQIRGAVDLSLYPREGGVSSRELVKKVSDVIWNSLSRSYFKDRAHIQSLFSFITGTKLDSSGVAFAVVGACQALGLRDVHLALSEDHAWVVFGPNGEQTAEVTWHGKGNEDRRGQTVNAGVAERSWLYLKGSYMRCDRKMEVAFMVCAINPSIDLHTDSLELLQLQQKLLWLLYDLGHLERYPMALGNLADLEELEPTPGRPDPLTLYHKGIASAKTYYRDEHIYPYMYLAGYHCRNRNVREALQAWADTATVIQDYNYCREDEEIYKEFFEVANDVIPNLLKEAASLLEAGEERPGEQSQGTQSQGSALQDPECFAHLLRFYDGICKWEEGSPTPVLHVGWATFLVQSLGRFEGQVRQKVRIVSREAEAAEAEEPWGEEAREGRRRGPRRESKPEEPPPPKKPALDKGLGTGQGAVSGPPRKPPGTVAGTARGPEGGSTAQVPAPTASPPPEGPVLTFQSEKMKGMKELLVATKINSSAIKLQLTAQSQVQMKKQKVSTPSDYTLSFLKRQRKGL
In words: Primary Assay Used to Determine Potency of MEN1 Activity Inhibition. As to the method:
Compound activity was determined using recombinant MEN1 protein (Creativebiomart, Cat #MEN1-35H) and a custom fluorescein-labeled MLL4-43 peptide (Eton Bioscience Inc.). Interaction between MEN1 and MLL4-43 in the presence of compounds was determined by fluorescence polarization assay using a Microplate Reader ClarioStar Plus. The reaction was carried out in assay buffer (50 mM TRIS-HCl pH 7.4-7.6, 50 mM NaCl, 1 mM DTT, 0.1 mg/ml BSA). The compounds were dispensed on a 384 well Diamond Well Plate (Axigen, Cat #P-384-120SQ-C-S) using the Biomek FX liquid handling system at 100× solutions of compounds in DMSO. 2×MEN1 mix (final concentration of MEN1 10 nM) was prepared in Assay buffer and 10 μl of mixture per well was added into 384 w white Reaction plate with NBS (Corning, Cat #4513). 10 μl of Assay buffer w/o MEN1 was used for negative control. Plates were centrifuged for 1 min at 100 g. Next step the Compounds were added to Reaction plate using Biomek station via following steps: 3 μl of 100× compounds (in DMSO) were mixed thoroughly with 27 μl Assay Buffer, then 2 μl of this mixture was added to Reaction plate with 10 μl of MEN1 mix. Plates were centrifuged for 1 min at 100 g and incubated for 20 min at room temperature. Next 8 μL of MLL4-43 peptide per well was added to final concentration of MLL 0.5 nM. Plates were incubated for 1 hour at room temperature. Then fluorescence polarization was measured using Microplate Reader.
Consider `Cc1c(CN2CCC3(CC2)CN(c2ncnc4ccc(CC(F)(F)F)cc24)C3)ccc2c1cc(C#N)n2C[C@@H]1CNC(=O)CO1` [US20250163061, Compound 102], for which the 50% effective concentration (EC50) was less than 75 nM.
`CCN1CC(Cn2c(C#N)cc3c(C)c(CN4CCC5(CC4)CN(c4ncnc6ccc(CC(F)(F)F)cc46)C5)ccc32)OCC1=O` (stereo not drawn) [US20250163061, Compound 104] gave an EC50 of less than 75 nM.
The result for `Cc1c(CN2CCC3(CC2)CN(c2nc(=O)[nH]c4ccc(CC(F)(F)F)cc24)C3)ccc2c1cc(C#N)n2C[C@@H]1CNC(=O)CO1` [US20250163061, Compound 105] reads 500 to 1000 nM.

Source of the values: BindingDB's records for patent US20250163061 (Bala Therapeutics, 2025).
